Data on 3 compounds can be found in patent publication US20140193383A1, “USE OF LACTOBACILLUS KEFIRANOFACIENS AS A PROBIOTIC AND A SYNBIOTIC” (Technologies Biolactis Inc., priority 2005, published 2014).

SMILES strings stand for the structures.

Test [1] concerns systolic blood pressure of SHR rats. Briefly: Anti-hypertensive potential in SHR rats (tail-cuff SBP). The format is in vivo, SHR female rats. The method, then:
Anti-hypertensive potential of whey fermented with […] (MPM) was evaluated by using SHR female rats (6 weeks old). 12 rats were randomized according to their weight in each treatment group. They were housed under specific pathogen-free conditions and maintained in a 12 hour-light/dark cycle. All animals consumed standard diet and received water ad libitum. Groups were forced-fed daily either 1 mL of water (placebo group), MPM (5 mL/kg) or Enalapril-malate (10 mg/kg), because of its well-known hypotensive effects. Systolic blood pressure (SBP) was measured weekly by the tail-cuff method with the automated RTBP2000 Tail Blood Pressure system (Kent Scientific, Torrington, Conn., USA). Data collections were made weekly and an average of 3 measurements was taken as initial mean SBP. Data was acquired and analysed with Biopac Student Lab Pro® software version 3.6.1 (Biopac System, Goleta, Calif., USA). […] A steady decrease of the SBP was observed every week with a maximum change of at least 25% at week 4 for the animals forced-fed with MPM.

Test [2] deals with oxazolone-induced atopic contact dermatitis. Description: Atopic contact dermatitis, therapeutic protocol (MPM). The format is in vivo, CD-1 mice. Particulars: Treatment of atopic contact dermatitis (day 17); Controls 0.55. An excerpt: (§1) A murine model of atopic contact dermatitis induced with oxazolone in mice was used to determine the anti-inflammatory effect of the whey fermented with Lactobacillus kefiranofaciens […]. This model of inflammation has proven to be a sensitive and useful tool to determine efficacy and potency of several anti-inflammatory and immunosuppressive drugs used in dermatological disorders like psoriasis for example. Drugs like glucocorticoids are commonly used to relieve skin and joint inflammation. Whey fermented with […] administered orally either in a prophylactic (Table 24) or therapeutic fashion (Table 23) reduced the inflammation as shown with a reduction of around 30% of ear and thickness in both cases. […] The ear thickness of the mice was measured every day. The prophylactic anti-inflammatory potential of MPM (patent PCT/CA2002/01988) was evaluated firstly by the administration of MPM, 7 days prior to sensitization. […] Dermatitis was induced as described previously and ear thickness was measured every day. The therapeutic anti-inflammatory potential of MPM was evaluated by the administration of MPM only after the first challenge. […] The mouse atopic contact dermatitis was done as described previously and ear thickness was measured every day. The mice's weight was measured twice a week.

Test [3] has the same test system. Briefly: Atopic contact dermatitis, prophylactic protocol (MPM). In kind it is in vivo, CD-1 mice. Particulars: Protection against atopic contact dermatitis (day 9); Controls 0.45.
Source text: as §1

The test system is the same in test [4]. Briefly: Atopic contact dermatitis, therapeutic protocol (R2C2). The format is in vivo, mice. An excerpt: A murine model of atopic contact dermatitis induced with oxazolone in mice was used to determine the anti-inflammatory effect of the whey fermented with Lactobacillus kefiranofaciens […]. This model of inflammation has proven to be a sensitive and useful tool to determine efficacy and potency of several anti-inflammatory and immunosuppressive drugs used in dermatological disorders like psoriasis for example. Drugs like glucocorticoids are commonly used to relieve skin and joint inflammation. Whey fermented with […] administered orally either in a prophylactic (Table 24) or therapeutic fashion (Table 23) reduced the inflammation as shown with a reduction of around 30% of ear and thickness in both cases. In more details, the murine model of atopic contact dermatitis was based on those firstly described by Garrigue et al. (Contact Dermatitis., 30(4):[…], 1994) and modified as follows: the CD-1 mice's abdomen were removed of hair and the sensitization phase was done with the application of 100 microliters of oxazolone 5% in acetone on the abdomen (Sigma-Aldrich, Oakville, On). After 4 days, the elicitation phase (first challenge) was done with application of 50 microliters of oxazolone 5% in acetone on the right ear (25 microliters each side of the ear). The second challenge was done 7 days after the first challenge with the same procedure. The ear thickness of the mice was measured every day. The therapeutic anti-inflammatory potential of […] was evaluated in an animal model of atopic contact dermatitis by feeding the bacterial suspension after the first challenge. The protective effect of […] was compared to that of hydrocortisone, because of its well-known anti-inflammatory effects on dermatitis.

Test [5] deals with DSS-induced intestinal inflammation. Description: Effect of live, pasteurized or irradiated bacteria on DSS intestinal inflammation. In kind it is in vivo, C57BL/6 mice. As for the experimental part: C57BL/6 mice were treated by gavage (p.o.) with 10^8 cfu/ml of different L. kefiranofaciens strains once per day for the duration of the experiment. Animals received the strains R2C2 or BioSP as live, pasteurized or irradiated bacteria. Intestinal inflammation was induced by the addition of DSS (2.5%) to the drinking water for 8 days and then replaced with fresh water for 8 days to evaluate the rapidity of recovery process from inflammation for the different treatment groups. The level and progression of inflammation was evaluated through measurements of weight variation and combined scores of diarrhea and occult blood. Colon length and myeloperoxidase (MPO) activity in the colon were also evaluated at the end of the experiment.

For `CCOC(=O)[C@H](CCc1ccccc1)N[C@@H](C)C(=O)N1CCC[C@H]1C(=O)O` [Enalapril, Enalapril-malate], the “Systolic blood pressure (mm Hg)” value is listed as 184 mm Hg in test [1] (Week 0, Controls 185); 165 mm Hg in test [1] (Week 1, Controls 181); 156 mm Hg in test [1] (Week 2, Controls 184); 154 mm Hg in test [1] (Week 3, Controls 183); 154 mm Hg in test [1] (Week 4, Controls 187).
In the case of `C[C@]12CCC(=O)C=C1CC[C@@H]1[C@@H]2[C@@H](O)C[C@@]2(C)[C@H]1CC[C@]2(O)C(=O)CO` [Hydrocortisone, hydrocortisone], the “Ear thickness (mm)” value was found to be 0.29 mm in test [2] and 0.30 mm in test [3]. Moreover, the “ear thickness (mm)” value in test [4] (Day 15, Controls 0.26) worked out at 0.18 mm; in test [4] (Day 17, Controls 0.39), 0.27 mm; in test [4] (Day 22, Controls 0.34), 0.15 mm.
`Nc1ccc(O)c(C(=O)O)c1` [5-ASA]: the “Weight loss (%) associated with 8 days of DSS exposure” value in test [5] (Day 5, DSS+saline −1.83) is on record as −3.21%; in test [5] (Day 6, DSS+saline −5.23), −3.64%; in test [5] (Day 7, DSS+saline −8.79), −5.90%; in test [5] (Day 8, DSS+saline −13.5), −8.07%. The “Combined occult blood and diarrhea scores (scale of 8)” value is listed as 1.75 in test [5] (Day 5 of DSS, DSS+saline 2.25); 3.75 in test [5] (Day 6 of DSS, DSS+saline 4.50); 4.25 in test [5] (Day 7 of DSS, DSS+saline 6.50); 5.50 in test [5] (Day 8 of DSS, DSS+saline 6.50). Further, the “MPO activity (U/g of tissue)” value in test [5] (colon, post-mortem, 8 days DSS and 8 days of recovery, no DSS 0.056, DSS+saline 0.226) was 0.043 U/g of tissue. Besides, the “Protective effect on DSS inflammation” value in test [5] (live, pasteurized or irradiated bacteria, 5-ASA comparator) is reported as “comparable protective effects”.
